{"source": "paper PMC12367838", "about": "“Relevance of kinetic interactions and co-formulants for plant protection product liver toxicity in vitro” (Archives of Toxicology, 2025)", "tested_on": "HepaRG cells", "experiment": "Total RNA sequencing, differential gene expression", "key": {"[1]": {"settings": "high sub-cytotoxic concentration, 24 h, vs solvent control"}, "[2]": {"settings": "low sub-cytotoxic concentration, 24 h, vs solvent control"}}}
{"smiles": "C#CCOc1ccc(CCNC(=O)C(OCC#C)c2ccc(Cl)cc2)cc1OC", "note": "(stereo not drawn) [MDP, mandipropamid]", "values": [{"measurement": "Fold change ACOX1", "setting": "gene ACOX1, MDP_HIGH", "value": 0.9326}, {"measurement": "log2FoldChange ACOX1", "setting": "gene ACOX1, MDP_HIGH", "value": -0.1007}, {"measurement": "Fold change AHR", "setting": "gene AHR, MDP_HIGH", "value": 1.696}, {"measurement": "log2FoldChange AHR", "setting": "gene AHR, MDP_HIGH", "value": 0.7618}, {"measurement": "Fold change CD36", "setting": "gene CD36, MDP_HIGH", "value": 1.4443}, {"measurement": "log2FoldChange CD36", "setting": "gene CD36, MDP_HIGH", "value": 0.5304}, {"measurement": "Fold change CYP1A1", "setting": "gene CYP1A1, MDP_HIGH", "value": 10.9554}, {"measurement": "log2FoldChange CYP1A1", "setting": "gene CYP1A1, MDP_HIGH", "value": 3.454}, {"measurement": "Fold change CYP1A2", "setting": "gene CYP1A2, MDP_HIGH", "value": 0.4656}, {"measurement": "log2FoldChange CYP1A2", "setting": "gene CYP1A2, MDP_HIGH", "value": -1.103}, {"measurement": "Fold change CYP2B6", "setting": "gene CYP2B6, MDP_HIGH", "value": 1.009}, {"measurement": "log2FoldChange CYP2B6", "setting": "gene CYP2B6, MDP_HIGH", "value": 0.01275}, {"measurement": "Fold change CYP2C9", "setting": "gene CYP2C9, MDP_HIGH", "value": 0.1687}, {"measurement": "log2FoldChange CYP2C9", "setting": "gene CYP2C9, MDP_HIGH", "value": -2.568}, {"measurement": "Fold change CYP2C19", "setting": "gene CYP2C19, MDP_HIGH", "value": 0.1531}, {"measurement": "log2FoldChange CYP2C19", "setting": "gene CYP2C19, MDP_HIGH", "value": -2.707}, {"measurement": "Fold change CYP2D6", "setting": "gene CYP2D6, MDP_HIGH", "value": 0.9227}, {"measurement": "log2FoldChange CYP2D6", "setting": "gene CYP2D6, MDP_HIGH", "value": -0.116}, {"measurement": "Fold change CYP3A4", "setting": "gene CYP3A4, MDP_HIGH", "value": 0.7016}, {"measurement": "log2FoldChange CYP3A4", "setting": "gene CYP3A4, MDP_HIGH", "value": -0.5112}, {"measurement": "Fold change FASN", "setting": "gene FASN, MDP_HIGH", "value": 1.131}, {"measurement": "log2FoldChange FASN", "setting": "gene FASN, MDP_HIGH", "value": 0.178}, {"measurement": "Fold change INSIG1", "setting": "gene INSIG1, MDP_HIGH", "value": 1.034}, {"measurement": "log2FoldChange INSIG1", "setting": "gene INSIG1, MDP_HIGH", "value": 0.04872}, {"measurement": "Fold change MLXIPL", "setting": "gene MLXIPL, MDP_HIGH", "value": 0.6622}, {"measurement": "log2FoldChange MLXIPL", "setting": "gene MLXIPL, MDP_HIGH", "value": -0.5947}, {"measurement": "Fold change NR1H2", "setting": "gene NR1H2, MDP_HIGH", "value": 1.431}, {"measurement": "log2FoldChange NR1H2", "setting": "gene NR1H2, MDP_HIGH", "value": 0.5168}, {"measurement": "Fold change NR1H4", "setting": "gene NR1H4, MDP_HIGH", "value": 0.8415}, {"measurement": "log2FoldChange NR1H4", "setting": "gene NR1H4, MDP_HIGH", "value": -0.249}, {"measurement": "Fold change NR1I2", "setting": "gene NR1I2, MDP_HIGH", "value": 0.5918}, {"measurement": "log2FoldChange NR1I2", "setting": "gene NR1I2, MDP_HIGH", "value": -0.7568}, {"measurement": "Fold change NR1I3", "setting": "gene NR1I3, MDP_HIGH", "value": 0.06449}, {"measurement": "log2FoldChange NR1I3", "setting": "gene NR1I3, MDP_HIGH", "value": -3.955}, {"measurement": "Fold change NR3C1", "setting": "gene NR3C1, MDP_HIGH", "value": 1.123}, {"measurement": "log2FoldChange NR3C1", "setting": "gene NR3C1, MDP_HIGH", "value": 0.1669}, {"measurement": "Fold change PPARA", "setting": "gene PPARA, MDP_HIGH", "value": 0.7275}, {"measurement": "log2FoldChange PPARA", "setting": "gene PPARA, MDP_HIGH", "value": -0.4589}, {"measurement": "Fold change PPARG", "setting": "gene PPARG, MDP_HIGH", "value": 4.604}, {"measurement": "log2FoldChange PPARG", "setting": "gene PPARG, MDP_HIGH", "value": 2.203}, {"measurement": "Fold change RARA", "setting": "gene RARA, MDP_HIGH", "value": 1.153}, {"measurement": "log2FoldChange RARA", "setting": "gene RARA, MDP_HIGH", "value": 0.2052}, {"measurement": "Fold change RARB", "setting": "gene RARB, MDP_HIGH", "value": 2.749}, {"measurement": "log2FoldChange RARB", "setting": "gene RARB, MDP_HIGH", "value": 1.459}, {"measurement": "Fold change RARG", "setting": "gene RARG, MDP_HIGH", "value": 1.386}, {"measurement": "log2FoldChange RARG", "setting": "gene RARG, MDP_HIGH", "value": 0.4711}, {"measurement": "Fold change SCD", "setting": "gene SCD, MDP_HIGH", "value": 0.8254}, {"measurement": "log2FoldChange SCD", "setting": "gene SCD, MDP_HIGH", "value": -0.2768}, {"measurement": "Fold change SREBF1", "setting": "gene SREBF1, MDP_HIGH", "value": 0.451}, {"measurement": "log2FoldChange SREBF1", "setting": "gene SREBF1, MDP_HIGH", "value": -1.149}, {"measurement": "CYP1A1 Fold change", "setting": "[1]", "value": "≈ 11"}, {"measurement": "NR1I3 Fold change", "setting": "[1]", "value": "≈ 0.06"}, {"measurement": "SREBF1 Fold change", "setting": "[1]", "value": "≈ 0.45"}, {"measurement": "ACOX1 Fold change", "setting": "[2]", "value": 1.035}, {"measurement": "ACOX1 log2FoldChange", "setting": "[2]", "value": 0.04967}, {"measurement": "AHR Fold change", "setting": "[2]", "value": 1.296}, {"measurement": "AHR log2FoldChange", "setting": "[2]", "value": 0.3736}, {"measurement": "CD36 Fold change", "setting": "[2]", "value": 1.929}, {"measurement": "CD36 log2FoldChange", "setting": "[2]", "value": 0.9479}, {"measurement": "CYP1A1 Fold change", "setting": "[2]", "value": 5.261}, {"measurement": "CYP1A1 log2FoldChange", "setting": "[2]", "value": 2.395}, {"measurement": "CYP1A2 Fold change", "setting": "[2]", "value": 0.6714}, {"measurement": "CYP1A2 log2FoldChange", "setting": "[2]", "value": -0.5747}, {"measurement": "CYP2B6 Fold change", "setting": "[2]", "value": 1.3371}, {"measurement": "CYP2B6 log2FoldChange", "setting": "[2]", "value": 0.4191}, {"measurement": "CYP2C9 Fold change", "setting": "[2]", "value": 0.329}, {"measurement": "CYP2C9 log2FoldChange", "setting": "[2]", "value": -1.6038}, {"measurement": "CYP2C19 Fold change", "setting": "[2]", "value": 0.4073}, {"measurement": "CYP2C19 log2FoldChange", "setting": "[2]", "value": -1.2958}, {"measurement": "CYP2D6 Fold change", "setting": "[2]", "value": 0.5576}, {"measurement": "CYP2D6 log2FoldChange", "setting": "[2]", "value": -0.8427}, {"measurement": "CYP3A4 log2FoldChange", "setting": "[2]", "value": 1.049}, {"measurement": "FASN Fold change", "setting": "[2]", "value": 1.765}, {"measurement": "FASN log2FoldChange", "setting": "[2]", "value": 0.8201}, {"measurement": "INSIG1 Fold change", "setting": "[2]", "value": 1.785}, {"measurement": "INSIG1 log2FoldChange", "setting": "[2]", "value": 0.8359}, {"measurement": "MLXIPL Fold change", "setting": "[2]", "value": 0.9069}, {"measurement": "MLXIPL log2FoldChange", "setting": "[2]", "value": -0.1409}, {"measurement": "NR1H2 Fold change", "setting": "[2]", "value": 1.22}, {"measurement": "NR1H2 log2FoldChange", "setting": "[2]", "value": 0.2868}, {"measurement": "NR1H4 Fold change", "setting": "[2]", "value": 1.127}, {"measurement": "NR1H4 log2FoldChange", "setting": "[2]", "value": 0.1725}, {"measurement": "NR1I2 Fold change", "setting": "[2]", "value": 0.6165}, {"measurement": "NR1I2 log2FoldChange", "setting": "[2]", "value": -0.6979}, {"measurement": "NR1I3 Fold change", "setting": "[2]", "value": 0.09752}, {"measurement": "NR1I3 log2FoldChange", "setting": "[2]", "value": -3.358}, {"measurement": "NR3C1 Fold change", "setting": "[2]", "value": 1.06}, {"measurement": "NR3C1 log2FoldChange", "setting": "[2]", "value": 0.08356}, {"measurement": "PPARA Fold change", "setting": "[2]", "value": 0.907}, {"measurement": "PPARA log2FoldChange", "setting": "[2]", "value": -0.1409}, {"measurement": "PPARG Fold change", "setting": "[2]", "value": 2.875}, {"measurement": "PPARG log2FoldChange", "setting": "[2]", "value": 1.5234}, {"measurement": "RARA Fold change", "setting": "[2]", "value": 1.12}, {"measurement": "RARA log2FoldChange", "setting": "[2]", "value": 0.164}, {"measurement": "RARB Fold change", "setting": "[2]", "value": 3.072}, {"measurement": "RARB log2FoldChange", "setting": "[2]", "value": 1.619}, {"measurement": "RARG Fold change", "setting": "[2]", "value": 1.553}, {"measurement": "RARG log2FoldChange", "setting": "[2]", "value": 0.6348}, {"measurement": "SCD Fold change", "setting": "[2]", "value": 1.519}, {"measurement": "SCD log2FoldChange", "setting": "[2]", "value": 0.6028}, {"measurement": "SREBF1 Fold change", "setting": "[2]", "value": 0.7245}, {"measurement": "SREBF1 log2FoldChange", "setting": "[2]", "value": -0.4649}]}
